Experimental data taken from ChEMBL document CHEMBL1201862, “PubChem BioAssay data set” (2004).
Activity calls are given as the source filed them.

How the values were obtained:
[1] = system: INS1; experiment: INS-1E mitochondrial potential rescue under cytokines – cell-based, JC-1 fluorescence ratio, dry powder, dose response (AID 488931); format: functional; conditions: Rattus norvegicus
[2] = system: INS1; experiment: INS-1E mitochondrial potential loss inhibitors – cell-based, JC-1 fluorescence, dry powder, set 2, dose response (AID 488867); format: functional; conditions: Rattus norvegicus
[3] = system: INS1; experiment: beta-cell survival under cytokine stress – INS-1E, ATP luminescence, dry powder, dose response (AID 488844); format: functional, cell-based; conditions: Rattus norvegicus
[4] = molecular target: T1, Replicative DNA helicase DnaB (Mycobacterium tuberculosis, UniProt P9WMR3); experiment: DnaB intein splicing inhibitors, dose response, biochemical, cell-free fluorescence (AID 449749); format: functional
T1 sequence (P9WMR3 whole entry): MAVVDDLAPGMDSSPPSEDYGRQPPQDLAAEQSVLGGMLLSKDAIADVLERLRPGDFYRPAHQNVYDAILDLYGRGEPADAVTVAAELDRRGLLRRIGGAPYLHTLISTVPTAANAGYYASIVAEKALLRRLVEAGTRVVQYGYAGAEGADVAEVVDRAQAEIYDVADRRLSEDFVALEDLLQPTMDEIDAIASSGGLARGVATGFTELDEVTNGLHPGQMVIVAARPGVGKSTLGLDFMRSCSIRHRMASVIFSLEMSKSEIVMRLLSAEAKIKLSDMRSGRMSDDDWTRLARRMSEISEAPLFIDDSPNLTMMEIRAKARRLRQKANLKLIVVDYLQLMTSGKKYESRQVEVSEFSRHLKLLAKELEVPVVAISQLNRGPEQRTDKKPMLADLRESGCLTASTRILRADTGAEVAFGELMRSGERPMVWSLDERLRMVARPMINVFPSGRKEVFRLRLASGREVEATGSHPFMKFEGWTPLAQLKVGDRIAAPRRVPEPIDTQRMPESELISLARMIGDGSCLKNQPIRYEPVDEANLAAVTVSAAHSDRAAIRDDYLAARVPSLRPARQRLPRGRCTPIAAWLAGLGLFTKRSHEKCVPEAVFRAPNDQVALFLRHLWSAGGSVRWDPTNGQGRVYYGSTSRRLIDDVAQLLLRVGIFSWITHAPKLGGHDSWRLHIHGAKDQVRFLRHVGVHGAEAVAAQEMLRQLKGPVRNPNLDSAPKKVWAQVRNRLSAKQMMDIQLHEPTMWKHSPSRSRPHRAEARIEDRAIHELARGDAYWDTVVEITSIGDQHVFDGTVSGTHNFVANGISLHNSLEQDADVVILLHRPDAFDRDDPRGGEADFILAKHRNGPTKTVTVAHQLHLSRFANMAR

[5] = molecular target: Hexokinase-1 (Homo sapiens, UniProt P19367); experiment: hexokinase 1 activity inhibitors, potency – biochemical, set 2, resazurin fluorescence coupled readout, selectivity assay for HKDC1 inhibitor project, SAR follow-up (AID 588356); format: functional
[6] = molecular target: T2, Hexokinase HKDC1 (Homo sapiens, UniProt Q2TB90); experiment: inhibition of HKDC1 glucose phosphorylation – biochemical, W721R variant, dose response (AID 504729); format: functional
T2 sequence (Q2TB90 whole entry): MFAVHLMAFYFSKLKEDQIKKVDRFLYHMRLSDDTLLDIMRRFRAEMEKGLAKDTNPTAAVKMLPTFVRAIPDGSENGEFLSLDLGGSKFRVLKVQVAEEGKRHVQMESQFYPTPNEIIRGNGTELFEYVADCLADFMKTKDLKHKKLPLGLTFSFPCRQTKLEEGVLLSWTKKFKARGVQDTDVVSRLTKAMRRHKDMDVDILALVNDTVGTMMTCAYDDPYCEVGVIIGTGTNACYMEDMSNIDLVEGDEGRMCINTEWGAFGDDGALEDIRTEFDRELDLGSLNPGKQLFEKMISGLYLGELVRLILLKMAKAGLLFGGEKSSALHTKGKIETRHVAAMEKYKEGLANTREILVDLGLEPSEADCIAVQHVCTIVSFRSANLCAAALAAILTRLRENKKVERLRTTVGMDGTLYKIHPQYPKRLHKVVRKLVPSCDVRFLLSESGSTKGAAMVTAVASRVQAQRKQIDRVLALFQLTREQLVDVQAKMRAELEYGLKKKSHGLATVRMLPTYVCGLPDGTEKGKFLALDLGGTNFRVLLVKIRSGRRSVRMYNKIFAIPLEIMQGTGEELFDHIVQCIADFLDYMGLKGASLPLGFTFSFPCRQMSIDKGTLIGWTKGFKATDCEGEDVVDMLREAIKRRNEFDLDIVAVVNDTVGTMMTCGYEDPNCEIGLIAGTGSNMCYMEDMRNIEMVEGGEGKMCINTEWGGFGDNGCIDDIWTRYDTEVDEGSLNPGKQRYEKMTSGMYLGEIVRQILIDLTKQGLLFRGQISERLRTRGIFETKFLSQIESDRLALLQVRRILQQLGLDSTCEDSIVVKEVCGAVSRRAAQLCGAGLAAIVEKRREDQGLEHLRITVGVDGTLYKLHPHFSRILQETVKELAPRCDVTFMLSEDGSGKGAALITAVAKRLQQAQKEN

[7] = molecular target: T3, Protein RecA (Mycobacterium tuberculosis, UniProt P9WHJ3); experiment: Fluorescence Cell-Free Homogeneous Dose Retest to Identify Inhibitors of RecA-Intein Splicing Activity. [Related pubchem assays (depositor defined):AID2097, AID2223, AID489010, AID492950]; format: functional
T3 sequence (P9WHJ3 whole entry): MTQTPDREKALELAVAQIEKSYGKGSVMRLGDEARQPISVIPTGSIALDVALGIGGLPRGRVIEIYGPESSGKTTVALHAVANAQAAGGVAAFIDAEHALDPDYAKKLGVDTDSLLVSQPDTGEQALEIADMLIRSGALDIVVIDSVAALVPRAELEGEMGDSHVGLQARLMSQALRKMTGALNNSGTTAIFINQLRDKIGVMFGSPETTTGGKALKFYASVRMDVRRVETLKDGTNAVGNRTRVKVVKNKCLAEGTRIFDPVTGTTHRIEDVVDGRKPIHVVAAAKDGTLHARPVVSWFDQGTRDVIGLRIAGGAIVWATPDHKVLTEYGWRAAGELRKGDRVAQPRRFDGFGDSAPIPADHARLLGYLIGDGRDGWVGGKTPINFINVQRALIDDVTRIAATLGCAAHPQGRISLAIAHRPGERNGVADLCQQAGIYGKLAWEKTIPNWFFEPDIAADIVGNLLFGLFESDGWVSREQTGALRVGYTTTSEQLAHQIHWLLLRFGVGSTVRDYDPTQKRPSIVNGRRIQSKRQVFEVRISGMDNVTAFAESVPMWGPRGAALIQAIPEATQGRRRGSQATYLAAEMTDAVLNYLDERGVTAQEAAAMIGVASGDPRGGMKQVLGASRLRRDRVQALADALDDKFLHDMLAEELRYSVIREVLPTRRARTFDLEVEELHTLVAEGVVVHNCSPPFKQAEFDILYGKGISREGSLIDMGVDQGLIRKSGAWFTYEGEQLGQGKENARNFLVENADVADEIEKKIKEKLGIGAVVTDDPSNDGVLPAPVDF

[8] = molecular target: T2, Hexokinase HKDC1; experiment: analog inhibition of human HKDC1 activity – biochemical, set 2, SAR follow-up (AID 588355); format: functional
[9] = Trypanosoma cruzi growth suppression in host cells – NIH3T3 host cells, beta-gal luminescence, confirmation (AID 2044); format: functional, cell-based;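 further: intracellular parasites grown in NIH/3T3 mouse fibroblasts as host cells; luminescent beta-galactosidase reporter signal from transgenic T. cruzi replicating inside host cells; inhibitors lower the luminescence signal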
[10] = Luminescence Cell-Based Dose Response HTS to Identify Inhibitors of 5'UTR Stem-Loop Driven Prion Protein mRNA Translation in H4 Neuroglioblastoma Cells. [Related pubchem assays: 1827 (Project Summary), 1813 (Primary HTS)]; format: functional
[11] = NIH3T3 cell viability loss – ATP luminescence, mouse fibroblasts, counter-screen, dose response (AID 2010); format: functional, cell-based;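 further: cells exposed to compound for about 90 hours before reading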
[12] = alpha-synuclein stem-loop luciferase translation blockers – H4 neuroglioma cells, luminescence, confirmation (AID 1988); format: functional, cell-based
[13] = viability of uninfected HEp-2 cells – cell-based, HTS, cytotoxicity control for RSV inhibitor project, dose response (AID 2410); format: functional; conditions: human respiratory syncytial virus
[14] = molecular target: DNA topoisomerase (Yersinia pestis, UniProt A0A2S9PM60); experiment: Yersinia topoisomerase I cleavage product accumulation – biochemical, cherry-pick, dose response (AID 588525)
[15] = luciferase reporter signal suppression in cells – H4 neuroglioma cells, luminescence, dose response (AID 1990); format: functional, cell-based

Hexokinase-1, sequence (P19367 whole entry): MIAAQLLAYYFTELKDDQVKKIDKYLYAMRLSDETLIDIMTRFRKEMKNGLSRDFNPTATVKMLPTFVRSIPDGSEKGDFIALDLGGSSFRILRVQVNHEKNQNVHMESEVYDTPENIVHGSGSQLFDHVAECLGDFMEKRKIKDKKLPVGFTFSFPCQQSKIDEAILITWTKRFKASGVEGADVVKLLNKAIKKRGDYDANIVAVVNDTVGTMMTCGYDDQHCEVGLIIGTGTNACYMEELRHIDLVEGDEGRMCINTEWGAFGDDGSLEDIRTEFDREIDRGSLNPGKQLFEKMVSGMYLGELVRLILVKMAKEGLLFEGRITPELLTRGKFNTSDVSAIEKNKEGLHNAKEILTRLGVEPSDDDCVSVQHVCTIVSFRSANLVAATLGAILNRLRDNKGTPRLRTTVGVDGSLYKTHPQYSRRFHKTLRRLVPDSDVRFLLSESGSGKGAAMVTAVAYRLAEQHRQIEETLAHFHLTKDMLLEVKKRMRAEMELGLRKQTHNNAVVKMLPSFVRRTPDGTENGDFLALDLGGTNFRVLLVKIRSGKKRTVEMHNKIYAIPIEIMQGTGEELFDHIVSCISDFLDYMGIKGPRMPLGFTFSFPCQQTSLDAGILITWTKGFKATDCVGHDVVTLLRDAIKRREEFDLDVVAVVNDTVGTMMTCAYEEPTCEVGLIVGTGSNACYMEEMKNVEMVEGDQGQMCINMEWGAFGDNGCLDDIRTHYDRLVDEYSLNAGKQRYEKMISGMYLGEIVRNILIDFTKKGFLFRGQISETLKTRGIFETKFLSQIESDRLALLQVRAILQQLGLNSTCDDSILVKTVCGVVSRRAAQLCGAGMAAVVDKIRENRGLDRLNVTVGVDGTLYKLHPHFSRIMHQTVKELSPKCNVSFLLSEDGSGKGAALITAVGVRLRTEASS
DNA topoisomerase, sequence (A0A2S9PM60 whole entry): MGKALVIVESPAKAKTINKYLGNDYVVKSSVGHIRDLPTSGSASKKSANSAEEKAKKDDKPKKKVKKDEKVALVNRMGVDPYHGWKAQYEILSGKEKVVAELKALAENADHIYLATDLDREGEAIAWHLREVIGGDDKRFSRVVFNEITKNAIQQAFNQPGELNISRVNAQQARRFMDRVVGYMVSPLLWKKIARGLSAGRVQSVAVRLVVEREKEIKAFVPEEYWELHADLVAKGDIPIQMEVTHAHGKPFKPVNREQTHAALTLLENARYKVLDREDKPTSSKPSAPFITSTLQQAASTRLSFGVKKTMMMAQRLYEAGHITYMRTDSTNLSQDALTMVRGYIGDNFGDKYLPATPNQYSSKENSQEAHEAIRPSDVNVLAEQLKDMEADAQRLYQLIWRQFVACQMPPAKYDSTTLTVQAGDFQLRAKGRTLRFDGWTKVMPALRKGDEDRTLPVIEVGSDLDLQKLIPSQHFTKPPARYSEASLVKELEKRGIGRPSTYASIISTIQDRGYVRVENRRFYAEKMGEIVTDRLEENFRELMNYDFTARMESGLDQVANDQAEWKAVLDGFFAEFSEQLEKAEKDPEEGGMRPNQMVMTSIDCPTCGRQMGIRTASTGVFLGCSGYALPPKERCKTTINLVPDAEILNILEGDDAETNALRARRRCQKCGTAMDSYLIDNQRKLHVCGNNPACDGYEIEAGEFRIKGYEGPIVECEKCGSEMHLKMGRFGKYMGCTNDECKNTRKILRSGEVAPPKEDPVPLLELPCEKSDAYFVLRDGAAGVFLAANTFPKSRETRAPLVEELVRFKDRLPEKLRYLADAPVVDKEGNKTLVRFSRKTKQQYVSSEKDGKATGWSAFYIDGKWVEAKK

Which AC50 [1] does the source give for `COc1ccc(S(=O)(=O)N(C)C[C@@H]2Oc3c(NC(=O)Nc4ccccc4)cccc3C(=O)N([C@@H](C)CO)C[C@H]2C)cc1` here?
The AC50 was 34.8 µM (active).

And the AC50 [2]?
Its AC50 is 58.9 µM (active).

And the AC50 [3]?
The AC50 was > 260 µM (inactive).

Which results are given for `CC(=O)NC1C(=O)N(CCN2CCOCC2)c2ccc(C)cc21` (stereo not given)?
AC50 [4]: 22.1 µM (active); IC50 [5]: > 80 µM (inactive); IC50 [6]: 4.71 µM (active); EC50 [7]: 8.53 µM (active); IC50 [8]: 4.45 µM (active)

Which EC50 [9] does the source give for `COc1ccc(-c2nc3c(c(=O)[nH]c(=O)n3Cc3ccccc3)n2Cc2ccccc2)cc1` here?
Its EC50 is 0.826 µM (active).

What about the EC50 [10] of the same molecule?
The EC50 was > 120 µM (not active).

What about the EC50 [11] of the same molecule?
Its EC50 is > 60 µM (inconclusive).

And the EC50 [12]?
Its EC50 is 17.7 µM (active).

What about the CC50 [13] of the same molecule?
The CC50 was 7.31 µM (active).

And the AC50 [14]?
Its AC50 is 7.41 µM (active).

And the EC50 [15]?
The EC50 was 26.7 µM (active).
